Assay results: patent US5773424A, “Treatment of toxoplasmosis” (priority 1994, dated 1998)

These compounds were tested against T. gondii adenosine kinase (Toxoplasma gondii, UniProt Q9TVW2) (assay: biochemical). Settings: not given.
Procedure: Preparation of cytosol extracts. For the structure activity relationships studies, approximately 5×10^8 T. gondii were suspended in 1.2 ml of 50 mM N-2-hydroxyethylpiperazine-N'-2-ethanesulfonic acid (HEPES)-Cl (pH 8.0)/1 mM dithiothreitol and homogenized for 30 seconds at setting 10, using a Brinnmann Instruments Polytron homogenizer fitted with a PTA 7K1 probe. The homogenate was then centrifuged at approximately 116,000 g for 1 hour at 5° and the supernatant (cytosol extract) collected and used as the enzyme source. Fresh cytosol extracts were prepared for each experiment.
Adenosine kinase assay. T. gondii adenosine kinase activity was measured by following the formation of [^14 C]AMP from [^14 C]adenosine and ATP. […] Therefore, the standard reaction mixture contained 50 mM HEPES-Cl (pH 8.0), 1 mM dithiothreitol, 5 μM [8-^14 C]adenosine (45 Ci/mol), 0.5 mM ATP, 0.5 mM MgCl2, 25 μM (+)-EHNA or 100 μM (±)-EHNA,10-30 μl of cytosol extract (approximately 3-10 μg of protein), and either 0, 0.1, 0.25, 0.5 or 1.0 mM of the compound to be tested, in a final volume of 150 μl.
Reactions were started by the addition of [8-^14 C]adenosine, incubated at 37° for 10 minutes and terminated by placing the reaction tubes in a boiling water bath for 2 minutes. Precipitated proteins were removed by centrifugation in a microcentrifuge (approximately 13,000 g) for 5 minutes, and a 15 μl aliquot of the resulting supernatant was mixed with 5 μl of a solution containing 10 mM each of AMP and adenosine. This mixture was then spotted on silica gel thin layer chromatography plates which were developed with a mixture of chloroform/methanol/acetic acid (16:3:1). […] The substrate and product spots (which accounted for all of the radioactivity on the plates) were identified by UV quenching, cut out, and the radioactivity quantitated by liquid scintillation counting in 20 ml of Scintilene, using a Packard 460 scintillation counter. […] Enzyme velocity was calculated by multiplying the fraction of AMP formed from adenosine times the amount of adenosine in the assay, and dividing by the incubation time.
Determination and significance of AppKi values. AppKi values were used to determine the relative degree of binding of compounds to adenosine kinase as compared to adenosine. AppKi values were estimated from Dixon plots of the data (1/.nu. versus [I]), using a computer program with least squares fitting according to the general principles of Cleland (Cleland, W W, The statistical analysis of enzyme kinetic data. Adv. Enzymol. 29:1-32, 1967). The program was written by Dr. Sungman Cha (Brown University, Providence, R.I.) and modified to fit IBM BASIC by Dr. Fardos N. M. Naguib. […] It should be noted, however, that the type of inhibition (i.e., competitive, noncompetitive, or uncompetitive) produced by the compounds was not determined, nor were the compounds evaluated as substrates for T. gondii adenosine kinase.

T. gondii adenosine kinase, sequence (Q9TVW2 whole entry): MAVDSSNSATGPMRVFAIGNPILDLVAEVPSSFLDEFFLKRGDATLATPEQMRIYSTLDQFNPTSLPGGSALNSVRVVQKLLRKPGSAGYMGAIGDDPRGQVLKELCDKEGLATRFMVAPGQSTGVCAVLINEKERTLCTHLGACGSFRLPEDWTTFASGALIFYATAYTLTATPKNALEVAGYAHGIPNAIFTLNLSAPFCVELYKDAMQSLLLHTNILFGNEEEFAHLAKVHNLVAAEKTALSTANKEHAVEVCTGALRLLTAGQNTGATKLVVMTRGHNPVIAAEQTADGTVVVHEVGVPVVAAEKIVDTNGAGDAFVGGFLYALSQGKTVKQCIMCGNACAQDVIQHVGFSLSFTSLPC

| Compound | Ki [µM] |
| --- | --- |
| Nc1ncnc2c1ncn2[C@@H]1O[C@H](CO)[C@@H](O)[C@H]1O [Compound 1] | 7 ± 3.3 |
| Nc1ncnc2c1ncn2[C@H]1O[C@H](CO)[C@@H](O)[C@H]1O [Compound 3] | 8400 |
| Nc1c2ncn([C@@H]3O[C@H](CO)[C@@H](O)[C@H]3O)c2nc[n+]1[O-] [Compound 4] | 1230 |
| Cn1cnc2c(ncn2[C@@H]2O[C@H](CO)[C@@H](O)[C@H]2O)c1=N [Compound 6] | 88 ± 28 |
| Nc1nc(Cl)nc2c1ncn2[C@@H]1O[C@H](CO)[C@@H](O)[C@H]1O [Compound 7] | 870 ± 50 |
| OC[C@H]1O[C@@H](n2cnc3c(Br)ncnc32)[C@H](O)[C@@H]1O [Compound 12] | 28 ± 2 |
| OC[C@H]1O[C@@H](n2cnc3c(Cl)ncnc32)[C@H](O)[C@@H]1O [Compound 13, 6-Chloropurine riboside] | 9.5 |
| OC[C@H]1O[C@@H](n2cnc3c(I)ncnc32)[C@H](O)[C@@H]1O [Compound 14] | 18 ± 1 |
| COc1ncnc2c1ncn2[C@@H]1O[C@H](CO)[C@@H](O)[C@H]1O [Compound 16] | 370 ± 40 |
| OC[C@H]1O[C@@H](n2cnc3c(S)ncnc32)[C@H](O)[C@@H]1O [Compound 17] | 5300 |
| CCSc1ncnc2c1ncn2[C@@H]1O[C@H](CO)[C@@H](O)[C@H]1O [Compound 19] | 330 ± 3 |
| CCNc1ncnc2c1ncn2[C@@H]1O[C@H](CO)[C@@H](O)[C@H]1O [Compound 28] | 100 ± 3 |
| C=CCNc1ncnc2c1ncn2[C@@H]1O[C@H](CO)[C@@H](O)[C@H]1O [Compound 30] | 220 ± 20 |
| CCCCNc1ncnc2c1ncn2[C@@H]1O[C@H](CO)[C@@H](O)[C@H]1O [Compound 32] | 220 ± 90 |
| C/C(=C\CNc1ncnc2c1ncn2[C@@H]1O[C@H](CO)[C@@H](O)[C@H]1O)CO [Compound 34] | 280 ± 20 |
| OC[C@H]1O[C@@H](n2cnc3c(NCc4ccco4)ncnc32)[C@H](O)[C@@H]1O [Compound 38] | 180 ± 10 |
| CCCCCCNc1ncnc2c1ncn2[C@@H]1O[C@H](CO)[C@@H](O)[C@H]1O [Compound 39] | 76 ± 4 |

| Compound | Ki [µM] |
| --- | --- |
| OC[C@H]1O[C@@H](n2cnc3c(NC4CCCCC4)ncnc32)[C@H](O)[C@@H]1O [Compound 40] | 240 ± 70 |
| CC(C)=CCCC(C)=CCNc1ncnc2c1ncn2[C@@H]1O[C@H](CO)[C@@H](O)[C@H]1O [Compound 41] | 100 ± 5 |
| CCCCCCCCCCNc1ncnc2c1ncn2[C@@H]1O[C@H](CO)[C@@H](O)[C@H]1O [Compound 42] | 380 ± 130 |
| OC[C@H]1O[C@@H](n2cnc3c(Nc4ccccc4)ncnc32)[C@H](O)[C@@H]1O [Compound 43] | 88 ± 12 |
| O=C(Nc1ncnc2c1ncn2[C@@H]1O[C@H](CO)[C@@H](O)[C@H]1O)c1ccccc1 [Compound 44] | 23 ± 1 |
| OC[C@H]1O[C@@H](n2cnc3c(NCc4ccccc4)ncnc32)[C@H](O)[C@@H]1O [Compound 45] | 100 ± 30 |
| Nc1ccc(CNc2ncnc3c2ncn3[C@@H]2O[C@H](CO)[C@@H](O)[C@H]2O)cc1 [Compound 46] | 120 ± 10 |
| COc1ccc(C(=O)Nc2ncnc3c2ncn3[C@@H]2O[C@H](CO)[C@@H](O)[C@H]2O)cc1 [Compound 47] | 3.9 ± 0.9 |
| C[C@H](Cc1ccccc1)Nc1ncnc2c1ncn2[C@@H]1O[C@H](CO)[C@@H](O)[C@H]1O [Compound 49] | 750 ± 30 |
| NC(=NO)c1cn([C@@H]2O[C@H](CO)[C@@H](O)[C@H]2O)c2ncnc(N)c12 [Compound 56] | 200 ± 6 |
| Nc1ncnc2c1nnn2[C@@H]1O[C@H](CO)[C@@H](O)[C@H]1O [Compound 57] | 23 ± 6 |
| Nc1ncnc2c1nc(Br)n2[C@@H]1O[C@H](CO)[C@@H](O)[C@H]1O [Compound 59] | 660 ± 70 |
| Nc1ncnc2c([C@@H]3O[C@H](CO)[C@@H](O)[C@H]3O)c[nH]c12 [Compound 60] | 3400 |
| Nc1nc(Cl)c2ncn([C@@H]3O[C@H](CO)[C@@H](O)[C@H]3O)c2n1 [Compound 63] | 1800 |
| OC[C@H]1O[C@@H](n2ccc3c(Cl)ncnc32)[C@H](O)[C@@H]1O [Compound 68] | 72 ± 12 |
| NNc1ncnc2c1ccn2[C@@H]1O[C@H](CO)[C@@H](O)[C@H]1O [Compound 69, 6-Hydrazino-7-deazapurine riboside] | 180 ± 10 |

Same assay, conditions: AppKi for inhibition of T. gondii adenosine kinase, 5 μM adenosine; ± range, at least two estimations

| Compound | Ki [µM] |
| --- | --- |
| Nc1nc(F)nc2c1ncn2[C@@H]1O[C@H](CO)[C@@H](O)[C@H]1O [Compound 8] | 3000 |
| OC[C@H]1O[C@@H](n2cnc3cncnc32)[C@H](O)[C@@H]1O [Compound 11] | 170 ± 20 |
| O=[N+]([O-])c1ccc(CSc2ncnc3c2ncn3[C@@H]2O[C@H](CO)[C@@H](O)[C@H]2O)cc1 [Compound 21] | 140 ± 10 |
| OC[C@H]1O[C@@H](n2cnc3c(=[Se])[nH]cnc32)[C@H](O)[C@@H]1O [Compound 23] | 130 ± 20 |
| O=[N+]([O-])c1ccc(C[Se]c2ncnc3c2ncn3[C@@H]2O[C@H](CO)[C@@H](O)[C@H]2O)cc1 [Compound 24] | 84 ± 46 |
| CNc1ncnc2c1ncn2[C@@H]1O[C@H](CO)[C@@H](O)[C@H]1O [Compound 26] | 23 ± 1 |
| CC(C)=CCNc1ncnc2c1ncn2[C@@H]1O[C@H](CO)[C@@H](O)[C@H]1O [Compound 36] | 51 ± 4 |
| Nc1ncnc2c1ccn2[C@@H]1O[C@H](CO)[C@@H](O)[C@H]1O [Compound 51] | 340 ± 80 |
| Nc1ncnc2c1c(Cl)cn2[C@@H]1O[C@H](CO)[C@@H](O)[C@H]1O [Compound 52] | 10 ± 1 |
| N#Cc1cn([C@@H]2O[C@H](CO)[C@@H](O)[C@H]2O)c2ncnc(N)c12 [Compound 54, 7-Cyano-7-deazaadenosine (Toyocamycin)] | < 60 |
| N#Cc1cn([C@@H]2O[C@H](CO)[C@@H](O)[C@H]2O)c2ncnc(N)c12 [Compound 54] | 21 ± 2 |
| NC(=O)c1cn([C@@H]2O[C@H](CO)[C@@H](O)[C@H]2O)c2ncnc(N)c12 [Compound 55, 7-Carboxamido-7-deazaadenosine (Sangivamycin)] | < 60 |
| OC[C@H]1O[C@@H](n2cnc3c(NC4CCCC4)nc(Cl)nc32)[C@H](O)[C@@H]1O [Compound 66] | 390 ± 90 |

Same assay, conditions: read-out: AppKi for inhibition of T. gondii adenosine kinase; 5 μM adenosine; ± range, at least two estimations

| Compound | Ki [µM] |
| --- | --- |
| Nc1ncnc2c1ncn2[C@@H]1C[C@H](CO)[C@@H](O)[C@H]1O (relative stereo) [Compound 112, Carbocyclic adenosine] | 170 ± 30 |

Same assay, conditions: read-out: Inhibition of T. gondii adenosine kinase

| Compound | inhibition at 1000 µM [%] |
| --- | --- |
| CCCCCCC(C(C)O)n1cnc2c(N)ncnc21 (racemic) [Compound 113, (±)-EHNA] | < 10 |
| Nc1ncnc2c1ncn2[C@H]1O[C@@H](CO)[C@H](O)[C@@H]1O [Compound 2] | < 10 |
| Nc1ccnc2c1ncn2[C@@H]1O[C@H](CO)[C@@H](O)[C@H]1O [Compound 5] | < 10 |
| Nc1nc(Nc2ccccc2)nc2c1ncn2[C@@H]1O[C@H](CO)[C@@H](O)[C@H]1O [Compound 9] | < 10 |
| Nc1nccc2c1ncn2[C@@H]1O[C@H](CO)[C@@H](O)[C@H]1O [Compound 10] | < 10 |
| O=c1[nH]cnc2c1ncn2[C@@H]1O[C@H](CO)[C@@H](O)[C@H]1O [Compound 15] | < 10 |
| OC[C@H]1O[C@@H](n2cnc3cccnc32)[C@H](O)[C@@H]1O [Compound 61] | < 10 |
| Nc1nc2c(ncn2[C@@H]2O[C@H](CO)[C@@H](O)[C@H]2O)c(=O)[nH]1 [Compound 64] | < 10 |
| O=c1[nH]c(=O)c2ncn([C@@H]3O[C@H](CO)[C@@H](O)[C@H]3O)c2[nH]1 [Compound 67] | < 10 |
